From patent US20120202885A1, “METHODS, ASSAYS AND COMPOSITIONS FOR TREATING RETINOL-RELATED DISEASES” (ReVision Therapeutics, Inc., priority 2004, published 2012)

Columns and labels:
[1] = 14-day HPR dose response on serum retinol (LC/MS of serum extract); type: in vivo, mice; conditions: abca4 null mutant, mouse, serum, intraperitoneal; 20 mg/kg HPR; read-out: steady state concentration of HPR in serum
Procedure: (§1) Initial studies began by examining the effect of HPR on serum retinol. Animals were divided into three groups and given either DMSO, 10 mg/kg HPR, or 20 mg/kg HPR for 14 days. At the end of the study period, blood was collected from the animals, sera were prepared and an acetonitrile extract of the serum was analyzed by reverse phase LC/MS. UV-visible spectral and mass/charge analyses were performed to confirm the identity of the eluted peaks. Sample chromatograms obtained from these analyses are shown: FIG. 7a.—extract from an abca4 null mutant mouse receiving HPR vehicle, DMSO; FIG. 7b.—10 mg/kg HPR; FIG. 7c.—20 mg/kg HPR. […] For 20 mg/kg HPR, serum retinol is decreased 72%, see FIG. 8. The steady state concentrations of retinol and HPR in serum (at 20 mg/kg HPR) were determined to be 2.11 μM and 1.75 μM, respectively.

[2] = test system: abca4 null mutant mouse; experiment: as above; type: in vivo, mice; conditions: DMSO, 10 or 20 mg/kg HPR, 14 days
Procedure: as §1

[3] = target: T1, Retinol Binding Protein (RBP) (Homo sapiens, UniProt P02753); experiment: Competition binding assay of HPR against RBP-retinol by fluorescence quenching; conditions: physiological temperature; HPR 2 μM (FIG. 9b)
Source text: Based upon these findings, we sought to further explore the mechanism(s) of retinol reduction during HPR treatment. A tenable hypothesis is that HPR may displace retinol by competing at the retinol binding site on RBP. […] Therefore, one can measure displacement of retinol from the RBP holoprotein by observing decreases in both protein (340 nm) and retinol (470 nm) fluorescence. We performed a competition binding assay using RBP-retinol/HPR concentrations which were similar to those determined from the 14 day trial at 20 mg/kg HPR described above. […] In the control assays, decreases in retinol fluorescence were associated with concomitant increases in protein fluorescence, see FIG. 9a. This effect was determined to be due to temperature effects as the dissociation constant of RBP-retinol increases (decreased affinity) with increased time at 37 C.

[4] = target: T1, Retinol Binding Protein (RBP); experiment: Fluorescence quenching study of MPR binding to retinol binding protein; conditions: 1 μM ligand, 0.5 μM Apo-RBP
Procedure: Apo-RBP at 0.5 μM was incubated with 0, 0.25, 0.5, 1 and 2 μM of MPR in PBS at room temperature for 1 hour, respectively. As controls, the same concentration of Apo-RBP was also incubated with 1 μM of HPR or 1 μM of atROL. All mixtures contained 0.2% Ethanol (v/v). The emission spectra were measured between 290 nm to 550 nm with excitation wavelength at 280 nm and 3 nm bandpass.

[5] = test system: ABCA4−/− mice; experiment: Drug holiday after 28 days of HPR: A2E and precursors in eyecup extracts (HPLC); type: in vivo; conditions: for A2E and precursor (A2PE-H2 and A2PE) levels: 10 mg/kg 28 days
Procedure: HPR (10 mg/kg in DMSO) was administered to ABCA4−/− mice daily for a period of 28 days. Control ABCA4−/− mice received only DMSO for the same period. […] Importantly, the observed reductions in lipofuscin autofluorescence persist long after cessation of HPR therapy. HPR (10 mg/kg), or DMSO, administration was discontinued following 28 days of treatment and re-evaluated A2E and precursor levels after 2 weeks and after 4 weeks.
We examined eyecup extracts by HPLC and employed detection by absorbance and fluorimetry. Identity of the indicated peaks was confirmed by on-line spectral analysis and by co-elution with authentic standards. […] Further, the A2E and precursor (A2PE-H2 and A2PE) levels after a […] or 28-day drug holiday remained at or near the levels immediately following 28 days of treatment (i.e., ca. 50% reduction relative to control), although after the 28-day drug holiday, the amount of A2E and precursor (A2PE-H2 and A2PE) had increased by a few percentage points relative to the 12-day drug holiday levels. […] It is clear that peak fluorescence tracks with the abundance of A2E, A2PE and A2PE-H2.

[6] = target: interaction of TTR with RBP (Homo sapiens, UniProt P02753); conditions: Malpeli et al., Holven et al.; cited from earlier work

concentration at 14 days [1]: 1750 nM | displacement of retinol from the RBP-retinol holoprotein [3]: efficiently displaces retinol | binding to RBP [4]: bind to RBP | detection of HPR or HPR metabolites in the eyes ([5]; 28-day drug holiday): unable to detect
SMILES: CC1=C(/C=C/C(C)=C/C=C/C(C)=C/C(=O)Nc2ccc(O)cc2)C(C)(C)CCC1 [HPR, N-(4-hydroxyphenyl)retinamide]
serum retinol, dose dependence [2]: dose-dependent reduction in serum retinol | A2E and precursor (A2PE-H2 and A2PE) levels ([5]; then 12-day drug holiday): remain significantly reduced relative to control mice | A2E and precursor (A2PE-H2 and A2PE) levels ([5]; then 28-day drug holiday): remain significantly reduced relative to control mice | reduction of A2E and precursors relative to control ([5]; immediately following 28 days of treatment, level held after 12- or 28-day drug holiday): ca. 50% | interaction of TTR with RBP [6]: interferes with the normal interaction of TTR with RBP
